Measurements taken from article PMC8521015, “Salicylic Acid, a Plant Hormone, Suppresses Phytophagous Insect Immune Response by Interrupting HMG-Like DSP1” (Frontiers in Physiology, 2021).

Target: T1, Se-DSP1 (Spodoptera exigua, UniProt A0A5P9L9K9)
T1 construct: full-length ORF, 505 residues; pET vector, bacterial expression, 6xHis and V5 tags, Ni-NTA then Sephadex G-100
T1 sequence (A0A5P9L9K9 1-505): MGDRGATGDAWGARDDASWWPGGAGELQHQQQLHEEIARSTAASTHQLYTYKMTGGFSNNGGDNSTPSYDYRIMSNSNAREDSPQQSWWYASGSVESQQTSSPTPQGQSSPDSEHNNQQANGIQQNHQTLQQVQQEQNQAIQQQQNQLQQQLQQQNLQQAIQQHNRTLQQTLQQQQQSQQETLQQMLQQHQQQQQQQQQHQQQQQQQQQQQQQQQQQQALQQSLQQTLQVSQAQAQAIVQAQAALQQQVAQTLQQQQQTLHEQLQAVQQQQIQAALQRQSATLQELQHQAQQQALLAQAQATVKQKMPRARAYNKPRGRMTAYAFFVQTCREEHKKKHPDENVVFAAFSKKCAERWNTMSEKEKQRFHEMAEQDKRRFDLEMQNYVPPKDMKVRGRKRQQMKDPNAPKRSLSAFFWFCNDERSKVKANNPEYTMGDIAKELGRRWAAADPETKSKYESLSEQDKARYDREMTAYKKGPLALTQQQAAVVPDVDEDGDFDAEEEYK
Experiment: thermal shift assay (Protein Thermal Shift dye, StepOne real-time PCR)
Details: 0-20 μM SA; 500 ng protein; 25-99 °C at 2.96 °C/min; ligand binding equation fit of melting temperatures

Kd: 1280 ± 50 nM
SMILES: O=C(O)c1ccccc1O [SA, 2-hydroxybenzoic acid]
